In patent publication US6809064B2, “Synergistic herbicidal compositions comprising herbicides from the benzoylcyclohexanedione group for use in rice crops” (Aventis CropScience GmbH, priority 2001, dated 2004):
Like-named read-outs stand apart in the source and are kept apart here.

What was measured:
[1] = test system: SCPJU; experiment: Post-emergence herbicidal action, submerged application; type: in vivo, Scirpus juncoides; conditions: for pest or weed control at 15 g/ha: dosage 15 g ai/ha
Experimental: (§1) The herbicidal efficacy of the active ingredients or active ingredient mixtures was scored visually by comparing the treated variants with untreated control variants. The damage and development of all aerial plant parts was recorded. Scoring was done on a percentage scale (100% action=all plants dead; 50% action=50% of the plants and green plant parts dead; 0% action=no discernible action=like untreated control plot).
(§2) Seeds or root segments of monocotyledonous and dicotyledonous weeds are placed in sandy loam in pots, covered with soil and grown in the greenhouse under good growth conditions (temperature, atmospheric humidity, water supply). Approximately three weeks after planting, the experimental plants are treated with the compositions according to the invention. In the case of spray application, the compositions according to the invention, which are formulated as wettable powders or emulsion concentrates, are sprayed onto the green plant parts in various dosages with an application rate of 600 to 800 l of water per ha (converted). Immediately to a few days after the application, the test containers are flooded with water up to a depth of 30 mm above the soil surface. In the case of submerged application, in contrast, the soil in the closed test container is already covered with paddy water up to a depth of 30 mm at the time of application. Here, the formulated active ingredients are added directly to the paddy water. After the experimental plants have remained in the greenhouse under optimal growth conditions for a further 3 to 4 weeks, the effect of the preparations is scored visually in comparison with untreated controls. The compositions according to the invention also have an outstanding herbicidal action against a broad spectrum of economically important grass weeds and broad-leaved weeds when applied post-emergence. Frequently, effects of the combinations according to the invention are observed which exceed the formal total of the effects when the herbicides are applied individually. When using suitable low dosages, the values observed in the experiments show an effect of the combinations which exceed the expected values calculated using Colby's formula.
(§3) When applying the combinations according to the invention, herbicidal effects are frequently observed on a harmful plant species which exceed the formal total of the effects of the herbicides present when these are applied by themselves. Alternatively, it is observed in some cases that a lower application rate is required for the herbicide combination in order to achieve the same effect on a harmful plant species in comparison with the individual products.
(§4) A, B=action of component A or B in percent at a dosage of a and b grams of ai/ha, respectively, and
(§5) E=expected value in % at a dosage of a+b grams of ai/ha.
(§6) Examples B.I to B.XVII have been conducted according to method B.2 (post-emergence herbicidal action) as mentioned above, wherein spray application has been applied in case of examples B.I to B.V. Submerged application has been applied in case of examples B.VI bis B.XVII.

[2] = test system: SAGPY; experiment: as above; type: in vivo, Sagittaria pygmaea
Experimental: as §1, §2, §3, §4, §5, §6

[3] = test system: SEBEX; experiment: Post-emergence herbicidal action, spray application; type: in vivo, Sesbania exaltata
Experimental: as §1
as §2, with “Frequently, effects of the combinations according to the invention are observed which exceed the formal total of the effects when the herbicides are applied individually.” left out, “formula. […]” for “formula.”

[4] = test system: ECHCG; experiment: as above; type: in vivo, Echinochloa crus galli
Experimental: as §1, §2, §3
A, B=action of component A or B in percent at a dosage of a and b grams of ai/ha, respectively, and […]

[5] = test system: CYPSE; experiment: Post-emergence herbicidal action, submerged application; type: in vivo, Cyperus serotinus; conditions: Example B.X, dosage 750 g ai/ha
Experimental: as §1
(§7) Seeds or root segments of monocotyledonous and dicotyledonous weeds are placed in sandy loam in pots, covered with soil and grown in the greenhouse under good growth conditions (temperature, atmospheric humidity, water supply). Approximately three weeks after planting, the experimental plants are treated with the compositions according to the invention. […] After the experimental plants have remained in the greenhouse under optimal growth conditions for a further 3 to 4 weeks, the effect of the preparations is scored visually in comparison with untreated controls. […] When using suitable low dosages, the values observed in the experiments show an effect of the combinations which exceed the expected values calculated using Colby's formula. […]

[6] = test system: CHEAL; experiment: Post-emergence herbicidal action, spray application; type: in vivo, Chenopodium album; conditions: Example B.I, dosage 10 g ai/ha
Experimental: as §1, §7

[7] = test system: ECHOR; experiment: Post-emergence herbicidal action, submerged application; type: in vivo; conditions: Example B.XIV, dosage 18.75 g ai/ha
Experimental: as §1, §7

[8] = test system: CYPES; experiment: Post-emergence herbicidal action, spray application; type: in vivo; conditions: Example B.IV, dosage 20 g ai/ha
Experimental: as §1, §7

[9] = Example B.II, dosage 100 g ai/ha
[10] = Example B.VI, submerged application, dosage 75 g ai/ha
[11] = Schoenoplectiella juncoides, read-out: SCPJU found
[12] = Sagittaria pygmaea, read-out: SAGPY found
[13] = Example B.III, dosage 100 g ai/ha
[14] = Example B.V, dosage 500 g ai/ha

`Cc1ccccc1CO[C@@H]1C[C@@]2(C(C)C)CC[C@]1(C)O2` (racemic) [Compound B7.1, cinmethylin] gave a pest or weed control at 15 g/ha ([1]; Schoenoplectiella juncoides, Example B.IX, submerged application, read-out: SCPJU found) of 0% and a pest or weed control at 30 g/ha ([2]; Sagittaria pygmaea, Example B.IX, submerged application, dosage 30 g ai/ha, read-out: SAGPY found) of 0%.

`O=C(O)COc1ccc(Cl)cc1Cl` [Compound B1.1, 2,4-D] gave an SEBEX found [3, 9] of 45% and an ECHCG found [4, 9] of 50%.

For `CS(=O)(=O)c1ccc(C(=O)C2=C(Sc3ccccc3)C3CCC(C3)C2=O)c(Cl)c1` (stereo not drawn) [Compound B2.1, benzobicyclon], the SCPJU found [1, 10] was 30% and the SAGPY found [2, 10] was 0%.

Compound `Cc1ccc(C(=O)COc2c(C(=O)c3ccc(Cl)c(C)c3Cl)c(C)nn2C)cc1` [Compound B3.1, benzofenap] has a pest or weed control at 300 g/ha ([1]; Schoenoplectiella juncoides, Example B.VII, submerged application, dosage 300 g ai/ha, read-out: SCPJU found) of 0% and a pest or weed control at 75 g/ha ([2]; Sagittaria pygmaea, Example B.VII, submerged application, dosage 75 g ai/ha, read-out: SAGPY found) of 0%.

`CC(C)Oc1cc(-n2nc(C(C)(C)C)oc2=O)c(Cl)cc1Cl` [Compound B4.2, oxadiazon] gave a pest or weed control at 22 g/ha ([1]; Schoenoplectiella juncoides, Example B.XV, submerged application, dosage 22 g ai/ha, read-out: SCPJU found) of 10% and a pest or weed control at 175 g/ha ([2]; Sagittaria pygmaea, Example B.XV, submerged application, dosage 175 g ai/ha, read-out: SAGPY found) of 0%.

For `CCN(CC)C(=O)n1cnc(S(=O)(=O)c2c(C)cc(C)cc2C)n1` [Compound B5.1, cafenstrole], the pest or weed control at 75 g/ha [1, 11] was 0% and the pest or weed control at 150 g/ha [2, 12] was 0%.

Work on `Cc1ccc(NC(=O)NC(C)(C)c2ccccc2)cc1` [Compound B5.2, daimuron] yielded a pest or weed control at 375 g/ha ([2]; Sagittaria pygmaea, Example B.X, submerged application, dosage 375 g ai/ha, read-out: SAGPY found) of 0% and a CYPSE found [5] of 0%.

With `CSC(=O)c1c(C(F)F)nc(C(F)(F)F)c(C(=O)SC)c1CC(C)C` [Compound B5.3, dithiopyr] the pest or weed control at 15 g/ha ([1]; Schoenoplectiella juncoides, Example B.XI, submerged application, read-out: SCPJU found) was 0% and the pest or weed control at 15 g/ha ([2]; Sagittaria pygmaea, Example B.XI, submerged application, dosage 15 g ai/ha, read-out: SAGPY found) was 0%.

`CCN(C(=O)n1nnn(-c2ccccc2Cl)c1=O)C1CCCCC1` [Compound B5.4, fentrazamide] showed a pest or weed control at 75 g/ha ([1]; Schoenoplectiella juncoides, Example B.XIII, submerged application, dosage 75 g ai/ha, read-out: SCPJU found) of 0% and a pest or weed control at 37.5 g/ha ([2]; Sagittaria pygmaea, Example B.XIII, submerged application, dosage 37.5 g ai/ha, read-out: SAGPY found) of 0%.

`CCOC(=O)c1cnn(C)c1S(=O)(=O)NC(=O)Nc1nc(OC)cc(OC)n1` [Compound B6.2, pyrazosulfuron-ethyl] gave a CHEAL found [6] of 10%.

With `CO/N=C(/C)c1cccc(Oc2nc(OC)cc(OC)n2)c1C(=O)OC` [Compound B6.3, pyriminobac-methyl] the pest or weed control at 7.5 g/ha [1, 11] was 0% and the pest or weed control at 7.5 g/ha [2, 12] was 0%.

For `CCNc1nc(NC(C)C(C)C)nc(SC)n1` (stereo not drawn) [Compound B8.1, dimethametryn], the SEBEX found [3, 13] was 50% and the ECHCG found [4, 13] was 25%.

For `CCOCOc1ccc(C(=O)Nc2cccc(Cl)c2Cl)cc1` [Compound B9.1, etobenzamide], the SCPJU found ([1]; Example B.XII, submerged application, dosage 375 g ai/ha) was 0% and the SAGPY found ([2]; Example B.XII, submerged application, dosage 187 g ai/ha) was 0%.

Work on `CCC1(CC2(c3cccc(Cl)c3)CO2)C(=O)c2ccccc2C1=O` (stereo not drawn) [Compound B10.1, indanofan] yielded a pest or weed control at 37.5 g/ha ([1]; Schoenoplectiella juncoides, Example B.XIV, submerged application, dosage 37.5 g ai/ha, read-out: SCPJU found) of 20% and an ECHOR found [7] of 50%.

In the case of `COc1cc(OC)nc(Sc2cccc3c2C(=O)OC3C)n1` (stereo not drawn) [Compound B12.1, pyriftalide], the pest or weed control at 100 g/ha ([1]; Schoenoplectiella juncoides, Example B.XVI, submerged application, dosage 100 g ai/ha, read-out: SCPJU found) is reported as 0% and the pest or weed control at 50 g/ha ([2]; Sagittaria pygmaea, Example B.XVI, submerged application, dosage 50 g ai/ha, read-out: SAGPY found) is reported as 0%.

With `CCCC(=NOCC(C)Oc1ccc(Cl)cc1)C1=C(O)CC(C2CCCSC2)CC1=O` (stereo not drawn) [Compound B13.1, profoxydim] the CYPES found [8] was 0% and the ECHCG found ([4]; Example B.IV, dosage 20 g ai/ha) was 30%.

Compound `NC1=C(Cl)C(=O)c2ccccc2C1=O` [Compound B14.1, quinoclamine] has an SEBEX found [3, 14] of 0% and an ECHCG found [4, 14] of 0%.
